One may read the inhibition as how much of the control response was suppressed. What is called IC50 is the point on the concentration scale where inhibition reaches its midpoint. High values mean weaker potency, low ones greater potency.

Assay [1] has as its target horse serum BChE (Equus caballus, UniProt P81908). The assay is described as follows: biochemical. The format is biochemical. Conditions: n = 3; for inhibition at 10000 µM / Enzyme inhibition (% ± SD) at 10 mM, BChE: at 10 mM; for inhibition at 10000 µM: read-out: Enzyme inhibition (% ± SD) at 10 mM, BChE.
The subject of assay [2] is scopolamine-induced amnesic mice. The assay is described as follows: Passive avoidance test in scopolamine-induced amnesic mice. The format is in vivo.

The structures appear in SMILES notation.

horse serum BChE, sequence (P81908 whole entry): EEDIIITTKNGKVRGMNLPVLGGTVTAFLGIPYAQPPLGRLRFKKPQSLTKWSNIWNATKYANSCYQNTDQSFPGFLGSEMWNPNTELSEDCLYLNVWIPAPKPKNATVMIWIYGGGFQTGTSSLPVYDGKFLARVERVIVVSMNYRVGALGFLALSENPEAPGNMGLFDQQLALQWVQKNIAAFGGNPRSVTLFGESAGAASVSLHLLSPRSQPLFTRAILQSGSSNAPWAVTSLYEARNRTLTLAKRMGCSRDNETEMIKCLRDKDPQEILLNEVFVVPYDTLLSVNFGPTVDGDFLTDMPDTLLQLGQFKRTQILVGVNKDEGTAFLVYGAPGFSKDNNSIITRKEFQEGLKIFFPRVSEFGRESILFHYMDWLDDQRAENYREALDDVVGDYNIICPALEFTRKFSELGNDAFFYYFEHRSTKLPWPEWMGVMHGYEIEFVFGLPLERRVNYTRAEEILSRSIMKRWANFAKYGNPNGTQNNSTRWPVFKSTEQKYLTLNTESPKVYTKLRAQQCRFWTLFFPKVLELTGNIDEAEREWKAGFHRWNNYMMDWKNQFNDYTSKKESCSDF

As to `Oc1ccc(-c2[o+]c3cc(O)cc(O)c3cc2O)cc1` [Pelargonidin], in assay [1] (± SD), the inhibition at 10000 µM turned out to be 25.3 ± 4.13%.

On to `O=c1cc(-c2ccc(O)cc2)oc2cc(O)cc(O)c12` [Apigenin], for which, in assay [1] (± SD), the inhibition at 10000 µM is less than 0%.

Take `O=c1cc(-c2ccc(O)c(-c3c(O)cc(O)c4c(=O)cc(-c5ccc(O)cc5)oc34)c2)oc2cc(O)cc(O)c12` [Amentoflavone]: the “Enzyme inhibition (% ± SD) at 10 mM, BChE” value (shortened to “Enzyme inhibition (% ± SD)”) in assay [1] is “no inhibition”. The inhibition at 10000 µM in assay [1] (± SD) was less than 0%.

Regarding `O=c1oc2c(O)c(O)cc3c(=O)oc4c(O)c(O)cc1c4c23` [Ellagic acid], in assay [1], the “Enzyme inhibition (% ± SD)” value was “no inhibition”. For the same compound, in assay [1] (± SD), the inhibition at 10000 µM was less than 0%.

Consider `O=c1c(O)c(-c2ccc(O)c(O)c2)oc2cc(O)ccc12` [Fisetin], for which, in assay [1] (± SD), the inhibition at 10000 µM came out at 76.2 ± 2.48% and the half-inhibitory concentration (IC50) was 9.62 mM.

For the compound `O=c1c(O)c(-c2ccc(O)c(O)c2)oc2cc(O)cc(O)c12` [Quercetin], the inhibition at 10000 µM in assay [1] (± SD) was found to be 99.4 ± 0.76%.

On to `COc1cc(C(=O)O)ccc1O` [Vanillic acid], for which, in assay [1] (± SD), the inhibition at 10000 µM was 35.1 ± 3.21%.

`O=C(/C=C/c1ccc(O)c(O)c1)O[C@@H]1C[C@](O)(C(=O)O)C[C@@H](O)[C@H]1O` [Chlorogenic acid]: the inhibition at 10000 µM in assay [1] (± SD) turned out to be 25.4 ± 1.72%.

As to `O=c1c(-c2ccc(O)cc2)coc2cc(O)cc(O)c12` [Genistein], in assay [1] (± SD), the inhibition at 10000 µM is less than 0%.

Regarding `O=C(O)c1cc(O)c(O)c(O)c1` [Gallic acid], in assay [2] (20 mg/kg i.p., scopolamine 1 mg/kg i.p. 30 min later, 24 h after scopolamine, cutoff 9 min), the “Mean latency time (min) ± SEM (2nd day)” value turned out to be 6.76 ± 1.11 min. The “Mean latency time (min) ± SEM (1st day)” value in assay [2] (acquisition day, before treatment, group given 20 mg/kg i.p., n = 8) was 0.29 ± 0.03 min. In addition, the inhibition at 10000 µM in assay [1] (± SD) was determined as 84.4 ± 2.25%.

For `O=c1c(O)c(-c2ccc(O)cc2)oc2cc(O)cc(O)c12` [Kaempferol], the inhibition at 10000 µM in assay [1] (± SD) is less than 0%.

Regarding `O=c1cc(-c2ccc(O)c(O)c2)oc2cc(O)cc(O)c12` [Luteolin], the “Enzyme inhibition (% ± SD)” value in assay [1] is listed as “no inhibition”. In assay [1] (± SD), the inhibition at 10000 µM was less than 0%.

Values taken from publication PMC12537693, “3-Hydroxytyrosol as a phenolic cholinesterase inhibitor with antiamnesic activity: a multimethodological study of selected plant phenolics” (Frontiers in Pharmacology, 2025).
